The test system of one assay is epididymal sperm cells. Description: Calcium imaging of mouse epididymal sperm cells with bitter tastants. The assay is classed as cell-based. The following applies: for calcium responses from the principal pieces / # CELLS RESPONDED / amplitudes of the responses from the acrosome and midpiece: epididymal sperm; for amplitudes of the responses from the acrosome and midpiece: subcellular areas. As to the method:
(§1) For isolation of epididymal spermatozoa, three incisions were made to the caudal epididymis, which was incubated in a 1.5-ml tube containing 1 ml of HS medium and 5 mg/ml bovine serum albumin (BSA) in a 5% CO2 incubator at 37° C. for 20 minutes (Xia et al., 2007). Sperm cells released into the medium were collected from top 0.1 ml, which were adjusted to 1×10^7 cells/ml HS medium.
(§2) Mouse spermatogenic cells were loaded with 5 μM acetoxymethylester of Fura-2 (Fora-2/AM) and 80 μg/ml pluronic F127 (Molecular Probes, Eugene, Oreg.) and transferred onto coverslips (22×60 mm, No. 0, Thomas Scientific Co.) for at least 1 hour at room temperature. The coverslip with spermatogenic cells was mounted in a recording chamber and superfused with HS or HS containing tasting compounds or the bitter blocker probenecid (Sigma-Aldrich, St. Louis, Mo.) via a valve controller (VC-8, Warner, USA).
(§3) Imaging of calcium responses was conducted as previously described (Gomez et al, 2005). Stimulation duration was 30 seconds and perfusion rate was 0.8 ml/min. Cells were excited at 340 nm and 380 nm and signals at 510 nm were captured by a cooled CCD camera. The change in fluorescence ratio (F=F340/F380) was recorded for regions-of-interest drawn on the cells.
(§4) To analyze the dose-dependent calcium responses, the response intensity (FN) was normalized and expressed as ΔF/F0 value: ΔF/F0=(F−F0)/F0. Here F0 is the fluorescence at the beginning of stimulation, i.e., time 0, and F is the peak fluorescence ratio evoked by the stimulation. Dose-response curves and EC50 values were generated based on the normalized responses using the software Origins by nonlinear regression.

In the next assay the test system is mouse spermatids. Description: Calcium imaging of mouse spermatids with bitter tastants. The conditions noted are these: for EC50: read-out: EC50 of calcium response. The assay is classed as cell-based. As to the method:
(§5) Eight adult male mice of each genotype: C57BL/6 and Gnat^−/− mice, were sacrificed, and the testis and caudal epididymis were immediately removed and transferred into HS solution containing (mM): 135 NaCl, 5 KCl, 2 CaCl2, 1 MgCl2, 30 Hepes, 10 glucose, 10 lactic acid, and 1 pyruvic acid (pH adjusted to 7.4 with NaOH) (Xia et al., 2007). For isolation of spermatids, seminiferous tubules from mouse testicle were dissected out and placed in a […] containing 3 ml of HS medium. The tissue was finely minced and gently triturated with a fire-polished pipette, and the mixture was filtered with a 100 μm nylon cell strainer (BD Falcon, Bedford, Mass.). The dissociated cells were collected in a 1.5 ml plastic tube, and washed once in HS medium by centrifugation at 300 g for 4 min and resuspended in HS medium.
as §2, §3, §4

The target of the next assay is human Tas2r38 (Homo sapiens, UniProt P59533). The conditions noted are these: cited from earlier work.
Assay [1] deals with sperm isolated from the Gnat3−/−mutant mice. Description: Calcium imaging of sperm from Gnat3−/− mutant mice. The assay is classed as cell-based, mouse. The conditions noted are these: 2 mM. As to the method:
as §5, §1, §2, §3

In a further assay the target is T1, human T2R43 (Homo sapiens, UniProt P59537).
T1 sequence (P59537 1-309): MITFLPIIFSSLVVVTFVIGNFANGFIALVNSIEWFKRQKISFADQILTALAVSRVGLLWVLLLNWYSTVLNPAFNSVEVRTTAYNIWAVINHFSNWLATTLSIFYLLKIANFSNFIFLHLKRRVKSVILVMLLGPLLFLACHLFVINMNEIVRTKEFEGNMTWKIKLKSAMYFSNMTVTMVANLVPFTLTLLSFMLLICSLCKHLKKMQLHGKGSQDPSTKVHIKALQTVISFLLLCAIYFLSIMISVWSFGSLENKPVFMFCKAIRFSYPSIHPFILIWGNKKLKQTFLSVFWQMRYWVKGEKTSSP
The conditions noted are these: response to aloin; cited from earlier work.

A further assay deals with T2, human T2R38 (Homo sapiens, UniProt P59533).
T2 sequence (P59533 1-333): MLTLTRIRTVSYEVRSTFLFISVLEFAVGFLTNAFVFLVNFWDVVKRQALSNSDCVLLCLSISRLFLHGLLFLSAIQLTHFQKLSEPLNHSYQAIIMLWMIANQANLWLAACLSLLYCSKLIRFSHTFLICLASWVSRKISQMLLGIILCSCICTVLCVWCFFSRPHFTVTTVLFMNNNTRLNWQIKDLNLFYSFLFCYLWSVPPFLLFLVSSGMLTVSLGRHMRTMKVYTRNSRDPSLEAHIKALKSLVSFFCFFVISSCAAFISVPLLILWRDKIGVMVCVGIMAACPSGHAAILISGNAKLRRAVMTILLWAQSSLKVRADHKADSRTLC
The following applies: response to PTC and PROP; cited from earlier work.

For the next assay, the system named is C57B/6L wild-type sperm. Description: Bitter blocker probenecid on calcium responses of wild-type mouse sperm. The assay is classed as cell-based. The conditions noted are these: for effect of blocker on response to PTC: preincubation 5 min, 0.3 mM PTC; for response to PTC after wash-off of blocker: after wash-off of 1 mM probenecid. As to the method:
as §2, §3
To confirm whether the germ cells' responses to bitter tastants were mediated by the bitter taste receptors, we examined the effect of the bitter taste receptor blocker probenecid (Greene et al, 2001) and nullification of the α-gustducin gene in Gnat3 α-gustducin knockout mice described in Wong et al, 1996. Probenecid is known to inhibit the responses of human T2R16, 38 and 43 to salicin, PTC and PROP, and aloin, but not that of T2R31 to saccharin (Greene et al, 2011).

The target of a further assay is T3, human T2R16 (Homo sapiens, UniProt Q9NYV7).
T3 sequence (Q9NYV7 1-291): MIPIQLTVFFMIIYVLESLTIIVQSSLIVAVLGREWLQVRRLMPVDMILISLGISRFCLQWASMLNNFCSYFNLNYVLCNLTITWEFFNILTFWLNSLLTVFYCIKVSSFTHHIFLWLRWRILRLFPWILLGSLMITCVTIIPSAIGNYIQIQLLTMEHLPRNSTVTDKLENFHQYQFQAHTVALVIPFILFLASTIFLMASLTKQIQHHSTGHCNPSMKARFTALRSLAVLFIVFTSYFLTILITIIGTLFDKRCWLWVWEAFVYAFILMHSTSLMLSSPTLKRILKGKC
The conditions noted are these: response to salicin; cited from earlier work.

A further assay deals with T4, human T2r14 (Homo sapiens, UniProt Q9NYV8).
T4 sequence (Q9NYV8 1-317): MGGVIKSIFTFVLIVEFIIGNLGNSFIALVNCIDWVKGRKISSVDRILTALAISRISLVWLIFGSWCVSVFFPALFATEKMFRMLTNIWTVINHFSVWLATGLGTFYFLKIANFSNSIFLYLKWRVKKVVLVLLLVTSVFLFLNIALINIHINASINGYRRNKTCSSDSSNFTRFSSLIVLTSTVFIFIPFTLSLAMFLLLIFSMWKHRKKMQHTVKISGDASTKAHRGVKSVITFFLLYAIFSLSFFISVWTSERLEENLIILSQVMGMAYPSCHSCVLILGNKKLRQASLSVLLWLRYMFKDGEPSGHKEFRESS
The conditions noted are these: heterologously expressed, most sensitive of five human T2rs; cited from earlier work.

Setting [2] is: FIG. 6, epididymal sperm Cell 1.
Setting [3] is: response profile 1, total 49 cells.
[4] abbreviates: response profile 2, total 49 cells.
Where [5] appears, read: response profile 4, total 49 cells.
Setting [6] is: response profile 7, total 49 cells.
[7] abbreviates: response profile 8, total 49 cells.
Setting [8] is: spermatids, response profile 1, total 29 cells.
[9] abbreviates: spermatids, response profile 3, total 29 cells.

As usually defined, the EC50 is the concentration that produces a half-maximal response.

Molecules are shown by their SMILES. Entries after “also recorded” stand apart in the source; their conditions may differ. Read-outs that look alike come from different tables or passages of the source.

`CCCc1cc(=O)[nH]c(=S)[nH]1` [PROP, 6-propyl-2 thiouracil]: the “calcium response of individual cell” value in the assay with epididymal sperm cells (setting [2]) is reported as “responded”; in the assay on epididymal sperm cells (FIG. 6, epididymal sperm Cell 3) it was “weakly”; in the assay with epididymal sperm cells (FIG. 6, epididymal sperm Cell 4), “responded weakly”. Also, the “calcium responses from the principal pieces” value in the assay with epididymal sperm cells is on record as “mostly undetectable”. The “cells responding with calcium responses” value in the assay with epididymal sperm cells (epididymal sperm cells, 49 cells) is listed as “about 61.2%”. The “# CELLS RESPONDED” value with epididymal sperm cells (setting [3]) came to 4; in the assay with epididymal sperm cells (setting [4]) it was 13; with epididymal sperm cells (response profile 3, total 49 cells), 1; with epididymal sperm cells (setting [5]), 1; with epididymal sperm cells (response profile 5, total 49 cells) it was 4; with epididymal sperm cells (setting [6]) it was 1. The “# CELLS RESPONDED” value in the assay on epididymal sperm cells (setting [7]) turned out to be 1; with epididymal sperm cells (response profile 10, total 49 cells), 5; in the assay on mouse spermatids (setting [8]) it was 3; in the assay with mouse spermatids (setting [9]) it was 1; in the assay on mouse spermatids (spermatids, response profile 5, total 29 cells), 1; in the assay with mouse spermatids (spermatids, response profile 9, total 29 cells), 3. In the assay on epididymal sperm cells, the “amplitudes of the responses from the acrosome and midpiece” value was “equally strong”. Besides, the EC50 with mouse spermatids (mouse spermatids, Fura-2 calcium imaging, normalized ΔF/F0) was 24 ± 12 µM; at human Tas2r38 (four responding variants of the receptor), 2 to 4 µM. The “cells responding with increased intracellular calcium” value with mouse spermatids (spermatids, 29 cells) is reported as 27.6%. In addition, in the assay with mouse spermatids (spermatids, 0.01, 0.1 and 1 μM), the “calcium response at low concentrations” value is given as “No responses”. Further, the “response of receptor variants” value on human Tas2r38 (two of six variants) is recorded as “unresponsive”. For the same molecule, in [1], the “calcium response of Gnat3−/− sperm” value is listed as “unresponsive; also recorded: did not respond”.

In the case of `CCCN(CCC)S(=O)(=O)c1ccc(C(=O)O)cc1` [probenecid], the “inhibition of receptor response” value on human T2R43, on human T2R38 and on human T2R16 was “inhibit” each time. Further, in the assay with C57B/6L wild-type sperm (1 mM probenecid), the “effect of blocker on response to cycloheximide” value is listed as “did not block; also recorded: no inhibitory effect”. In addition, the “effect of blocker on response to PTC” value is “nearly undetectable” with C57B/6L wild-type sperm (1 mM probenecid) and “nearly completely suppressed” with C57B/6L wild-type sperm (1 mM probenecid, listed as prebenecid). Further, the “response to PTC after wash-off of blocker” value was “partially recovered” with C57B/6L wild-type sperm and “restored” in the assay with C57B/6L wild-type sperm (listed as prebenecid).

Take `NC(=S)Nc1ccccc1` [PTC, N-phenylthiourea]: the “calcium response of individual cell” value with epididymal sperm cells (setting [2]) is “responded”. Further, the “calcium responses from the principal pieces” value with epididymal sperm cells is on record as “mostly undetectable”. Further, the “# CELLS RESPONDED” value with epididymal sperm cells (setting [3]) stood at 4; in the assay on epididymal sperm cells (setting [4]), 13; with epididymal sperm cells (setting [5]), 1; with epididymal sperm cells (response profile 6, total 49 cells), 1; in the assay on epididymal sperm cells (setting [6]) it was 1; with epididymal sperm cells (setting [7]), 1. The “# CELLS RESPONDED” value with epididymal sperm cells (response profile 11, total 49 cells) came to 1; in the assay on mouse spermatids (setting [8]), 3; in the assay on mouse spermatids (spermatids, response profile 2, total 29 cells) it was 1; in the assay with mouse spermatids (setting [9]), 1; in the assay on mouse spermatids (spermatids, response profile 6, total 29 cells), 1; with mouse spermatids (spermatids, response profile 10, total 29 cells), 3. The “amplitudes of the responses from the acrosome and midpiece” value in the assay on epididymal sperm cells is “equally strong”. The “increase in the intracellular calcium concentration” value in the assay with C57B/6L wild-type sperm (300 μM PTC alone) is “significant”. The “calcium response in the principal piece” value in the assay on mouse spermatids (spermatids, compared with acrosome and midpiece) is reported as “detectable but much smaller”. Besides, the “increase in intracellular calcium, acrosome versus midpiece” value with mouse spermatids (spermatids, subcellular areas) is given as “much larger in the acrosome than in the midpiece”. Also, the “calcium response of Gnat3−/− sperm” value in assay [1] is recorded as “unresponsive; also recorded: did not respond”.

For the molecule `CC(C)(O)[C@@H]1[C@H]2OC(=O)[C@@H]1[C@]1(O)C[C@H]3O[C@]34C(=O)O[C@H]2[C@]14C` [picrotin], the EC50 on human T2r14 was 18 µM; in the assay with mouse spermatids (Mus musculus) it was 20 ± 10 µM.

Source of the values: US20150087610A1, “Method of Modifying Fertility” (Monell Chemical Senses Center, priority 2012, published 2015).
